Source: US9150579B2, “Selective PI3K delta inhibitors” (Rhizen Pharmaceuticals SA, priority 2012, dated 2015)
Where two headings read alike, the source gives them in different places.

Experiments:
[1] = Oral pharmacokinetics in rats; format: in vivo
Procedure: The protocol for the pharmacokinetics studies in rat is provided below.
All animals were fasted overnight (12 hours) before dosing and continued till 4.0 hours after administration of test item. Test item formulations were prepared in 1% Tween 80 and 99% media (0.5% Methyl cellulose, 4000 cPs, pH 2.2). The blood samples (150 μl from each animal) were collected from the orbital sinus, and placed into a micro centrifuge tube containing disodium EDTA as an anticoagulant. Blood samples were centrifuged immediately with a speed of 1000 g for 10 min at 4° C. and separated plasma samples were frozen at below −80° C. and stored until analysis. The concentrations of test item in all formulation were analyzed by HPLC. The plasma concentrations of test item in all samples were analyzed by LC-MS/MS. Pharmacokinetic parameters viz. Cmax, AUC0-t, Tmax, and t1/2 were estimated by using WinNonlin software.

[2] = Oral pharmacokinetics in dogs; format: in vivo
PI3K delta = PI3K delta (Homo sapiens (Human), UniProt O00329); assay: Assay 1: Fluorescent (HTRF) determination of PI3K enzyme activity, delta; format: biochemical
Procedure: (§1) The homogenous time resolved fluorescence (HTRF) assay allows detection of 3,4,5-triphosphate (PIP3) formed as a result of phosphorylation of phosphotidylinositol 4,5-biphosphate (PIP2) by PI3K isoforms such as α, β, γ or δ.
(§2) PI3K isoform activity for α, β, γ or δ was determined using a PI3K human HTRF™ Assay Kit (Millipore, Billerica, Mass.) with modifications. All incubations were carried out at room temperature. […] After the initial incubation, 5 μl/well of 400 μM ATP was added and incubated for an additional 30 minutes. Reaction was terminated by adding 5 μl/well stop solution (Millipore, Billerica, Mass.). Five microliters of detection mix (Millipore, Billerica, Mass.) were then added to each well and was incubated for 6-18 h in the dark. HRTF ratio was measured on a microplate reader (BMG Labtech., Germany) at an excitation wavelength of 337 nm and emission wavelengths of 665 and 620 nm with an integration time of 400 μsec.

PI3K γ = PI3K γ (Homo sapiens (Human), UniProt P48736); assay: Assay 1: Fluorescent (HTRF) determination of PI3K enzyme activity, gamma; format: biochemical
Procedure: as §1
as §2, with “dark.” for “dark. HRTF ratio was measured on a microplate reader (BMG Labtech., Germany) at an excitation wavelength of 337 nm and emission wavelengths of 665 and 620 nm with an integration time of 400 μsec.”

[3] = Metabolic stability in human liver microsomes; format: in vitro ADME; settings: 1 μM test item, 60 minutes, NADPH
Procedure: (§3) Metabolic stability studies were conducted using mouse, rat, and human liver microsomes. The protocol for the studies with mouse, rat, and human liver microsomes (all from BD Gentest, USA) is provided below. In brief, 0.4 mg protein was preincubated with 2 mM NADPH (cofactor) in phosphate buffer (pH˜7.4) for 15 min at 37° C. and then added with 1 μM test item and incubated further for 60 minutes in triplicate. The reaction mixture was terminated with methanol containing an internal standard and centrifuged further to analyze the test item remaining in the supernatant by LC-MS/MS. The percent parent compound remaining was calculated in comparison with similar samples terminated at 0 minutes.

PI3K β = PI3K β (Homo sapiens (Human), UniProt P42338); assay: Assay 1: Fluorescent (HTRF) determination of PI3K enzyme activity, beta; format: biochemical
Procedure: as §1
as §2, with “dark.” for “dark. HRTF ratio was measured on a microplate reader (BMG Labtech., Germany) at an excitation wavelength of 337 nm and emission wavelengths of 665 and 620 nm with an integration time of 400 μsec.”

[4] = Metabolic stability in rat liver microsomes; format: in vitro ADME; settings: 1 μM test item, 60 minutes, NADPH
Procedure: as §3

PI3K α = PI3K α (Homo sapiens (Human), UniProt P42336); assay: Assay 1: Fluorescent (HTRF) determination of PI3K enzyme activity, alpha; format: biochemical
Procedure: as §1
as §2, with “dark.” for “dark. HRTF ratio was measured on a microplate reader (BMG Labtech., Germany) at an excitation wavelength of 337 nm and emission wavelengths of 665 and 620 nm with an integration time of 400 μsec.”

[5] = Metabolic stability in mouse liver microsomes; format: in vitro ADME; settings: 1 μM test item, 60 minutes, NADPH
Procedure: as §3

Sequence of PI3K γ (P48736 whole entry): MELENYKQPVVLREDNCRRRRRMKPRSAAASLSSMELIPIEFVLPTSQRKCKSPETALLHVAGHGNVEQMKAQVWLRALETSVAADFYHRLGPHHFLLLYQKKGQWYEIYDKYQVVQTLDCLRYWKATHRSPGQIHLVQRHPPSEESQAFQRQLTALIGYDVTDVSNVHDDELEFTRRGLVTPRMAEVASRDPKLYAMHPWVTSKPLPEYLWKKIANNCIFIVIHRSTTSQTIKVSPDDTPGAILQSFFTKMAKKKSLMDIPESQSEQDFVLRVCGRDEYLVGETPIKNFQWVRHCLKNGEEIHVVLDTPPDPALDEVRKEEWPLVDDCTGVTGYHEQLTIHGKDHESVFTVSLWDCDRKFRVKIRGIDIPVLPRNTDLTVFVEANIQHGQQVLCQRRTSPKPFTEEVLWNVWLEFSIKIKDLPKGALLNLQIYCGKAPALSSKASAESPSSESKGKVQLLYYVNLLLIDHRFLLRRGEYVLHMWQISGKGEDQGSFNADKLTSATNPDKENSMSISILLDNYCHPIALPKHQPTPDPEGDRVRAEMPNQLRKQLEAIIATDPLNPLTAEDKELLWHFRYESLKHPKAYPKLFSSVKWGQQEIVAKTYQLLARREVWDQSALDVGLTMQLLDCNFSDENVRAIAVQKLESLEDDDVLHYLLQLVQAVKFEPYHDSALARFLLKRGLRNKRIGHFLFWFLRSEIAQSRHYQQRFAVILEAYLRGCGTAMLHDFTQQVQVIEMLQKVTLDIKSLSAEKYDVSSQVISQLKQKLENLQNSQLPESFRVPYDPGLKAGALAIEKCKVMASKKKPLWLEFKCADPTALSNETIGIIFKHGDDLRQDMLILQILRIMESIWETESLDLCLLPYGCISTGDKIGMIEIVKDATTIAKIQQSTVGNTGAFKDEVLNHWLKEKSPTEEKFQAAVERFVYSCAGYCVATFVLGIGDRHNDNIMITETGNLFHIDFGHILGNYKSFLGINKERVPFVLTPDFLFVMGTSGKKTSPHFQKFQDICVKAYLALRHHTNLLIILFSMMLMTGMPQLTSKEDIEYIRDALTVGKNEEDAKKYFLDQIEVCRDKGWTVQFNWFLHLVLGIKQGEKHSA
Sequence of PI3K β (P42338 whole entry): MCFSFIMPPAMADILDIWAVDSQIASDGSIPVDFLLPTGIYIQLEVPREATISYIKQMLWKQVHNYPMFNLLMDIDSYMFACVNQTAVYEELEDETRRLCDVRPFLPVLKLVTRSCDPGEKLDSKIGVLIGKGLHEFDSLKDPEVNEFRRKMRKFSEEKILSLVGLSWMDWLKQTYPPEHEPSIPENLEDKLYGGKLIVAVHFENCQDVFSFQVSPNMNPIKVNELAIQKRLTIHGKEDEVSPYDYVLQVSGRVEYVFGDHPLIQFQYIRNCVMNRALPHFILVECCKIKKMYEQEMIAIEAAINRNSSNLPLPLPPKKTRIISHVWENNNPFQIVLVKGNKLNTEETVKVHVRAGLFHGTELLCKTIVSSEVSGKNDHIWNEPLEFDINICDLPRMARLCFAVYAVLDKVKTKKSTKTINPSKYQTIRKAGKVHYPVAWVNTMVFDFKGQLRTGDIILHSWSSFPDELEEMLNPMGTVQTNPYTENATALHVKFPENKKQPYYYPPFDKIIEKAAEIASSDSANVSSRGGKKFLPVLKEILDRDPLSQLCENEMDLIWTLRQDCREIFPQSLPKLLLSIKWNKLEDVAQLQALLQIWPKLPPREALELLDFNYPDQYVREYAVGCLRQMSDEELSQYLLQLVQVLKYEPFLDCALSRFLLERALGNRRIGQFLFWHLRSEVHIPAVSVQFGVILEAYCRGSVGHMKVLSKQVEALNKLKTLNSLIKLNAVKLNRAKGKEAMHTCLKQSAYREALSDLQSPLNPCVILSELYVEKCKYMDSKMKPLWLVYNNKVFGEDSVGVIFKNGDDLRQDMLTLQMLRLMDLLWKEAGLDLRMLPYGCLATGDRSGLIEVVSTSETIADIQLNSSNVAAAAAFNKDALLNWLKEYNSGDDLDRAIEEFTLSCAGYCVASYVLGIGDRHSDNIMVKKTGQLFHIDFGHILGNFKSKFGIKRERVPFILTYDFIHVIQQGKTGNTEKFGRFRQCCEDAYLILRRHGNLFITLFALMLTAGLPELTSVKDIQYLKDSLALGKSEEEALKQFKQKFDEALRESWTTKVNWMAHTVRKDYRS
Sequence of PI3K β (P27986 whole entry partner): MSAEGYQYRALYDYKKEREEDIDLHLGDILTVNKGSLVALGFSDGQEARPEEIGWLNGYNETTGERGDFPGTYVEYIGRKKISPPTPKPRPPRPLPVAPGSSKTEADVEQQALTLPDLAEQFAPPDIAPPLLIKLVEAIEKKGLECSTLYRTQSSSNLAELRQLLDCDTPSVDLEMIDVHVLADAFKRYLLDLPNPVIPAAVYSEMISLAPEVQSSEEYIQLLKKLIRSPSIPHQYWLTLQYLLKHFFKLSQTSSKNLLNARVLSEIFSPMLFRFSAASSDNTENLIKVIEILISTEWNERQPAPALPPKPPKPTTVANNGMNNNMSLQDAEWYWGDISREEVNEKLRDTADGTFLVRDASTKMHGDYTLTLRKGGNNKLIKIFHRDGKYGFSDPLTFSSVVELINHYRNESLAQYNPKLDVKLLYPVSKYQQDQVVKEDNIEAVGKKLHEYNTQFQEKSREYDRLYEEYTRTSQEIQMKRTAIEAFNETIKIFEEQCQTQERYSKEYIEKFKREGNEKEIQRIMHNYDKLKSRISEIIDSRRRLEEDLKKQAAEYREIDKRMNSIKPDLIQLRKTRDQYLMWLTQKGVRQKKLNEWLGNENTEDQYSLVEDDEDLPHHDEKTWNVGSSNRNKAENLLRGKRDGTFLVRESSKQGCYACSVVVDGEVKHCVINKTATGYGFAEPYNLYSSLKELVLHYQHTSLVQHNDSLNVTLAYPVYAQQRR
Sequence of PI3K delta (O00329 whole entry, canonical isoform): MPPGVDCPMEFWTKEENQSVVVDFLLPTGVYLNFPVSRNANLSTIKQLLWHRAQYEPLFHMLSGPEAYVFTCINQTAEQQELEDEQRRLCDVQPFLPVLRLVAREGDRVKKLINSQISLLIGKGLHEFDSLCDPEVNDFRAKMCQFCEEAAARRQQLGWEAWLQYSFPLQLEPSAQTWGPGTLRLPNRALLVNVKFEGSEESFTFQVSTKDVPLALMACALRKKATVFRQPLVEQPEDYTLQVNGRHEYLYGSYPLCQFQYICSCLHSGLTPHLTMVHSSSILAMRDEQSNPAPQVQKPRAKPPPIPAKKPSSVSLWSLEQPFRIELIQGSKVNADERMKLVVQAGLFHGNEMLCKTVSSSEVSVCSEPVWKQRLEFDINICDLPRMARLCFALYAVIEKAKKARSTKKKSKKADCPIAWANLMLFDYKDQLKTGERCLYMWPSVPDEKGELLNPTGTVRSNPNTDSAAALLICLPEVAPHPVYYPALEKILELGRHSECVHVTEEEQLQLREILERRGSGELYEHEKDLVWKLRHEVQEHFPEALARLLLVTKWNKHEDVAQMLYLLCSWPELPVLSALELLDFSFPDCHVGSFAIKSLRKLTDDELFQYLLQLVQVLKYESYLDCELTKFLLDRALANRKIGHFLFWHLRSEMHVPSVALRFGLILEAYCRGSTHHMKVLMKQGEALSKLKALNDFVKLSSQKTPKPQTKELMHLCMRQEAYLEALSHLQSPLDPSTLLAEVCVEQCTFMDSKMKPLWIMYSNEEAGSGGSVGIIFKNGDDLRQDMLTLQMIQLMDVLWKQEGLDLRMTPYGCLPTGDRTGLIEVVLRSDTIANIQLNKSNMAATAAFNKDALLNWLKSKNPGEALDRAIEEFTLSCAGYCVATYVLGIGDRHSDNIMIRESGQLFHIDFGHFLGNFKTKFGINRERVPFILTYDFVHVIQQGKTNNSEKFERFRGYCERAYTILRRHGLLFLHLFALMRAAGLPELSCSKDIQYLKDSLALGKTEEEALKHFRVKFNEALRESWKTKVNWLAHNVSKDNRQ
Sequence of PI3K delta (P27986 whole entry partner, canonical isoform): as the sequence (P27986 whole entry partner) above
Sequence of PI3K α (P42336 whole entry): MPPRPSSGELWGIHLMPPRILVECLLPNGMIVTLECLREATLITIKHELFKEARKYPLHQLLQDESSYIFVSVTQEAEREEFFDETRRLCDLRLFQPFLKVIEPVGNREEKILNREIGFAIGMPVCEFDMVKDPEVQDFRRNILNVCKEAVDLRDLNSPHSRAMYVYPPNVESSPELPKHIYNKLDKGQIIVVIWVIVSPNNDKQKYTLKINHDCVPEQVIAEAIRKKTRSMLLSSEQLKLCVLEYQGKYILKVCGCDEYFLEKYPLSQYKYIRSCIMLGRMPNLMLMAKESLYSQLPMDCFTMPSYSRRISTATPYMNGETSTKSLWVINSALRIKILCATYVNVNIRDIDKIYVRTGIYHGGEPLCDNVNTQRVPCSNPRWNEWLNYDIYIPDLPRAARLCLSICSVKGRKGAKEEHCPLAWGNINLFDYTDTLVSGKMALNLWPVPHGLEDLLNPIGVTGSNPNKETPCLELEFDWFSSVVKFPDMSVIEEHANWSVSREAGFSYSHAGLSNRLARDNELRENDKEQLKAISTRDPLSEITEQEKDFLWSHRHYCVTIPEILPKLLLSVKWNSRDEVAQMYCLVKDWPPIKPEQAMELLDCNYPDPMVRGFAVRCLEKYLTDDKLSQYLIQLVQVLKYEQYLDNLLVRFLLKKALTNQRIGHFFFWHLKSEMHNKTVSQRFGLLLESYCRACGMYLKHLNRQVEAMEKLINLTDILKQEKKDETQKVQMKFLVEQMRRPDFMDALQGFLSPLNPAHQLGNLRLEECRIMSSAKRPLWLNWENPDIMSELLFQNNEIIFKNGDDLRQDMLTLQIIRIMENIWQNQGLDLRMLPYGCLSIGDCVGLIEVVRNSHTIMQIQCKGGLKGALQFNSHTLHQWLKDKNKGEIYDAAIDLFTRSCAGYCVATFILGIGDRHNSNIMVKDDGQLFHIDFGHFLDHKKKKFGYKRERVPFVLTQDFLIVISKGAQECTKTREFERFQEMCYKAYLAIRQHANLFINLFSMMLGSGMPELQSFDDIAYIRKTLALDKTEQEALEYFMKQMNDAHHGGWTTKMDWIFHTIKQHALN
Sequence of PI3K α (P27986 whole entry partner): as the sequence (P27986 whole entry partner) above

| IC50 (PI3K delta) | inhibition at 1 µM (PI3K γ) | inhibition at 1 µM (PI3K β) | inhibition at 1 µM (PI3K α) | IC50 (PI3K delta; μM) | SMILES | Cmax relative to free base of compound B1 [1] | area under the curve (AUC) relative to free base of compound B1 [1] | Cmax relative to free base of compound B1 [2] | area under the curve (AUC) relative to free base of compound B1 [2] | Metabolic stability in liver microsomes, Human (percent parent compound remaining) [3] | Metabolic stability in liver microsomes, Rat (percent parent compound remaining) [4] | Metabolic stability in liver microsomes, Mouse (percent parent compound remaining) [5] |
| --- | --- | --- | --- | --- | --- | --- | --- | --- | --- | --- | --- | --- |
|  |  |  |  |  | CC(C)Oc1ccc(-c2nn([C@@H](C)c3oc4ccc(F)cc4c(=O)c3-c3cccc(F)c3)c3ncnc(N)c23)cc1F.Cc1ccc(S(=O)(=O)O)cc1 [PTSA salt of compound B1, (S)-2-(1-(4-amino-3-(3-fluoro-4-isopropoxyphenyl)-1H-pyrazolo[3,4-d]pyrimidin-1-yl)ethyl)-6-fluoro-3-(3-fluorophenyl)-4H-chromen-4-one 4-methylbenzenesulfonate] | about twice | nearly three times | more than twice | about four times |  |  |  |
| 0.0373 µM | 55.9% | 9.95% | 2.63% |  | CC(C)Oc1ccc(-c2nn(C(C)c3oc4ccccc4c(=O)c3-c3cccc(F)c3)c3ncnc(N)c23)cc1F (racemic) [Compound A, 2-(1-(4-amino-3-(3-fluoro-4-isopropoxyphenyl)-1H-pyrazolo[3,4-d]pyrimidin-1-yl)ethyl)-3-(3-fluorophenyl)-4H-chromen-4-one] |  |  |  |  | 38.4% | 43.1% | 32.6% |
|  | 66.3% | 38.7% | 0.95% | > 10 µM | CC(C)Oc1ccc(-c2nn([C@H](C)c3oc4ccccc4c(=O)c3-c3cccc(F)c3)c3ncnc(N)c23)cc1F [Compound A2, (R)-2-(1-(4-amino-3-(3-fluoro-4-isopropoxyphenyl)-1H-pyrazolo[3,4-d]pyrimidin-1-yl)ethyl)-3-(3-fluorophenyl)-4H-chromen-4-one] |  |  |  |  | 11.4% | 44.2% | 34.7% |
|  |  |  |  |  | CC(C)Oc1ccc(-c2nn([C@H](C)c3oc4ccc(F)cc4c(=O)c3-c3cccc(F)c3)c3ncnc(N)c23)cc1F [Compound B2, (R)-2-(1-(4-amino-3-(3-fluoro-4-isopropoxyphenyl)-1H-pyrazolo[3,4-d]pyrimidin-1-yl)ethyl)-6-fluoro-3-(3-fluorophenyl)-4H-chromen-4-one] |  |  |  |  | 27.5% | 48.6% | 54.1% |
|  |  |  |  |  | CC(C)Oc1ccc(-c2nn(C(C)c3oc4ccc(F)cc4c(=O)c3-c3cccc(F)c3)c3ncnc(N)c23)cc1F (racemic) [Compound B, 2-(1-(4-amino-3-(3-fluoro-4-isopropoxyphenyl)-1H-pyrazolo[3,4-d]pyrimidin-1-yl)ethyl)-6-fluoro-3-(3-fluorophenyl)-4H-chromen-4-one] |  |  |  |  | 46.9% | 51.4% | 54.9% |
